Source: US6737383B1, “Herbicidal oxadiazolidines” (priority 1999, dated 2004)

Legend:
corn = test: Test B pre/postemergence corn; assay type: in vivo, Zea mays; conditions: Preemergence; for Plant response rating, Corn: Rate 125 g/ha
How it was run: (§1)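 Herbicidal effect was estimated by eye on a ten-point control scale after plants spent twelve to sixteen days in a greenhouse following soil or foliar treatment. Foliar sprays targeted plants at one to four leaves; all doses were formulated in a non-phytotoxic solvent with surfactant.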

crabgrass = test: Test B pre/postemergence crabgrass; assay type: in vivo, Digitaria sanguinalis; conditions: Preemergence; for Plant response rating, Crabgrass: Rate 125 g/ha
How it was run: as §1

wheat = test: Test B pre/postemergence wheat; assay type: in vivo, Triticum aestivum; conditions: Preemergence; for Plant response rating, Wheat: Rate 125 g/ha
How it was run: as §1

morningglory = test: Test B pre/postemergence morningglory; assay type: in vivo, Ipomoea hederacea; conditions: Preemergence; for Plant response rating, Morningglory: Rate 125 g/ha
How it was run: as §1

velvetleaf = test: Test B pre/postemergence velvetleaf; assay type: in vivo, Abutilon theophrasti; conditions: Preemergence; for Plant response rating, Velvetleaf: Rate 125 g/ha
How it was run: as §1

purple nutsedge = test: Test B pre/postemergence purple nutsedge; assay type: in vivo, Cyperus rotundus; conditions: Preemergence; for Plant response rating, Nutsedge: Rate 125 g/ha
How it was run: as §1

sugar beet = test: Test B pre/postemergence sugar beet; assay type: in vivo, Beta vulgaris; conditions: Preemergence; for Plant response rating, Sugarbeets: Rate 125 g/ha
How it was run: as §1

wild oat = test: Test B pre/postemergence wild oat; assay type: in vivo, Avena fatua; conditions: Preemergence; for Plant response rating, Wild oats: Rate 125 g/ha
How it was run: as §1

bedstraw = test: Test B pre/postemergence bedstraw; assay type: in vivo, Galium aparine; conditions: Preemergence; for Plant response rating, Bedstraw: Rate 125 g/ha
How it was run: as §1

rape = test: Test B pre/postemergence rape; assay type: in vivo, Brassica napus; conditions: Preemergence; for Plant response rating, Rape: Rate 125 g/ha
How it was run: as §1

giant foxtail = test: Test B pre/postemergence giant foxtail; assay type: in vivo, Setaria faberii; conditions: Preemergence; for Plant response rating, Giant foxtail: Rate 125 g/ha
How it was run: as §1

surinam grass = test: Test B pre/postemergence surinam grass; assay type: in vivo, Brachiaria decumbens; conditions: Preemergence; for Plant response rating, B. signalgrass: Rate 125 g/ha
How it was run: as §1

cocklebur = test: Test B pre/postemergence cocklebur; assay type: in vivo, Xanthium strumarium; conditions: Preemergence; for Plant response rating, Cocklebur: Rate 125 g/ha
How it was run: as §1

pigweed = test: Test B pre/postemergence pigweed; assay type: in vivo, Amaranthus retroflexus; conditions: Preemergence; for Plant response rating, Redroot pigweed: Rate 125 g/ha
How it was run: as §1

blackgrass = test: Test B pre/postemergence blackgrass; assay type: in vivo, Alopecurus myosuroides; conditions: Preemergence; for Plant response rating, Blackgrass: Rate 125 g/ha
How it was run: as §1

soybean = test: Test B pre/postemergence soybean; assay type: in vivo, Glycine max; conditions: Preemergence; for Plant response rating, Soybean: Rate 125 g/ha
How it was run: as §1

[1] = Rate 62 g/ha, scale of 0 to 10 where 0 is no effect and 10 is complete control
[2] = scale of 0 to 10 where 0 is no effect and 10 is complete control
[3] = Rate 250 g/ha, scale 0 (no effect) to 10 (complete control)
[4] = Rate 500 g/ha, scale 0 to 10 (0 no effect, 10 complete control)

CC(C)N(C(=O)n1oc(=O)n(CCC(=O)N(C)C)c1=O)c1ccc(Cl)cc1 [Compound 719]
Corn plant response rating (corn; [1]): 0
Plant response rating, Corn (corn; [2]): 0
Corn plant response rating (corn; [3]): 0
Corn plant response rating (corn; [4]): 5
Plant response rating, Crabgrass (crabgrass; [2]): 3
Crabgrass plant response rating (crabgrass; [3]): 8
Crabgrass plant response rating (crabgrass; [4]): 9
Wheat plant response rating (wheat; [1]): 0
Plant response rating, Wheat (wheat; [2]): 0
Wheat plant response rating (wheat; [3]): 3
Wheat plant response rating (wheat; [4]): 5
Morningglory plant response rating (morningglory; [1]): 0
Plant response rating, Morningglory (morningglory; [2]): 1
Morningglory plant response rating (morningglory; [3]): 3
Morningglory plant response rating (morningglory; [4]): 3
Velvetleaf plant response rating (velvetleaf; [1]): 0
Plant response rating, Velvetleaf (velvetleaf; [2]): 0
Velvetleaf plant response rating (velvetleaf; [3]): 0
Velvetleaf plant response rating (velvetleaf; [4]): 0
Nutsedge plant response rating (purple nutsedge; [1]): 0
Plant response rating, Nutsedge (purple nutsedge; [2]): 0
Nutsedge plant response rating (purple nutsedge; [3]): 0
Nutsedge plant response rating (purple nutsedge; [4]): 0
Sugarbeets plant response rating (sugar beet; [1]): 4
Plant response rating, Sugarbeets (sugar beet; [2]): 4
Sugarbeets plant response rating (sugar beet; [3]): 6
Sugarbeets plant response rating (sugar beet; [4]): 8
Wild oats plant response rating (wild oat; [1]): 2
Plant response rating, Wild oats (wild oat; [2]): 6
Wild oats plant response rating (wild oat; [3]): 9
Wild oats plant response rating (wild oat; [4]): 9
Bedstraw plant response rating (bedstraw; [1]): 0
Plant response rating, Bedstraw (bedstraw; [2]): 0
Bedstraw plant response rating (bedstraw; [3]): 0
Bedstraw plant response rating (bedstraw; [4]): 0
Rape plant response rating (rape; [1]): 0
Plant response rating, Rape (rape; [2]): 0
Rape plant response rating (rape; [3]): 2
Rape plant response rating (rape; [4]): 6
Plant response rating, Giant foxtail (giant foxtail; [2]): 5
Giant foxtail plant response rating (giant foxtail; [3]): 8
Giant foxtail plant response rating (giant foxtail; [4]): 10
B. signalgrass plant response rating (surinam grass; [1]): 3
Plant response rating, B. signalgrass (surinam grass; [2]): 7
B. signalgrass plant response rating (surinam grass; [3]): 7
B. signalgrass plant response rating (surinam grass; [4]): 9
Cocklebur plant response rating (cocklebur; [1]): 0
Plant response rating, Cocklebur (cocklebur; [2]): 0
Cocklebur plant response rating (cocklebur; [3]): 0
Cocklebur plant response rating (cocklebur; [4]): 0
Redroot pigweed plant response rating (pigweed; [1]): 7
Plant response rating, Redroot pigweed (pigweed; [2]): 7
Redroot pigweed plant response rating (pigweed; [3]): 10
Redroot pigweed plant response rating (pigweed; [4]): 10
Blackgrass plant response rating (blackgrass; [1]): 6
Plant response rating, Blackgrass (blackgrass; [2]): 8
Blackgrass plant response rating (blackgrass; [3]): 9
Blackgrass plant response rating (blackgrass; [4]): 10
Soybean plant response rating (soybean; [1]): 0
Plant response rating, Soybean (soybean; [2]): 0
Soybean plant response rating (soybean; [3]): 0
Soybean plant response rating (soybean; [4]): 0

COCC(OC)n1c(=O)on(C(=O)N(c2ccc(Cl)cc2)C(C)C)c1=O (stereo not shown) [Compound 726]
Corn plant response rating (corn; [1]): 0
Plant response rating, Corn (corn; [2]): 0
Corn plant response rating (corn; [3]): 0
Corn plant response rating (corn; [4]): 2
Crabgrass plant response rating (crabgrass; [1]): 9
Plant response rating, Crabgrass (crabgrass; [2]): 9
Crabgrass plant response rating (crabgrass; [3]): 9
Crabgrass plant response rating (crabgrass; [4]): 10
Wheat plant response rating (wheat; [1]): 0
Plant response rating, Wheat (wheat; [2]): 0
Wheat plant response rating (wheat; [3]): 0
Wheat plant response rating (wheat; [4]): 0
Morningglory plant response rating (morningglory; [1]): 0
Plant response rating, Morningglory (morningglory; [2]): 0
Morningglory plant response rating (morningglory; [3]): 1
Morningglory plant response rating (morningglory; [4]): 1
Velvetleaf plant response rating (velvetleaf; [1]): 0
Plant response rating, Velvetleaf (velvetleaf; [2]): 0
Velvetleaf plant response rating (velvetleaf; [3]): 0
Velvetleaf plant response rating (velvetleaf; [4]): 0
Nutsedge plant response rating (purple nutsedge; [1]): 0
Plant response rating, Nutsedge (purple nutsedge; [2]): 0
Nutsedge plant response rating (purple nutsedge; [3]): 0
Nutsedge plant response rating (purple nutsedge; [4]): 0
Sugarbeets plant response rating (sugar beet; [1]): 0
Plant response rating, Sugarbeets (sugar beet; [2]): 0
Sugarbeets plant response rating (sugar beet; [3]): 5
Sugarbeets plant response rating (sugar beet; [4]): 5
Wild oats plant response rating (wild oat; [1]): 1
Plant response rating, Wild oats (wild oat; [2]): 7
Wild oats plant response rating (wild oat; [3]): 8
Wild oats plant response rating (wild oat; [4]): 9
Bedstraw plant response rating (bedstraw; [1]): 0
Plant response rating, Bedstraw (bedstraw; [2]): 0
Bedstraw plant response rating (bedstraw; [3]): 0
Bedstraw plant response rating (bedstraw; [4]): 0
Rape plant response rating (rape; [1]): 0
Plant response rating, Rape (rape; [2]): 0
Rape plant response rating (rape; [3]): 0
Rape plant response rating (rape; [4]): 7
Giant foxtail plant response rating (giant foxtail; [1]): 9
Plant response rating, Giant foxtail (giant foxtail; [2]): 9
Giant foxtail plant response rating (giant foxtail; [3]): 10
Giant foxtail plant response rating (giant foxtail; [4]): 10
B. signalgrass plant response rating (surinam grass; [1]): 4
Plant response rating, B. signalgrass (surinam grass; [2]): 7
B. signalgrass plant response rating (surinam grass; [3]): 7
B. signalgrass plant response rating (surinam grass; [4]): 9
Cocklebur plant response rating (cocklebur; [1]): 0
Plant response rating, Cocklebur (cocklebur; [2]): 0
Cocklebur plant response rating (cocklebur; [3]): 0
Cocklebur plant response rating (cocklebur; [4]): 0
Redroot pigweed plant response rating (pigweed; [1]): 0
Plant response rating, Redroot pigweed (pigweed; [2]): 4
Redroot pigweed plant response rating (pigweed; [3]): 7
Redroot pigweed plant response rating (pigweed; [4]): 8
Blackgrass plant response rating (blackgrass; [1]): 7
Plant response rating, Blackgrass (blackgrass; [2]): 8
Blackgrass plant response rating (blackgrass; [3]): 8
Blackgrass plant response rating (blackgrass; [4]): 9
Soybean plant response rating (soybean; [1]): 0
Plant response rating, Soybean (soybean; [2]): 0
Soybean plant response rating (soybean; [3]): 0
Soybean plant response rating (soybean; [4]): 0

CC(C)N(C(=O)n1oc(=O)n(C(C)C(=S)N(C)C)c1=O)c1ccc(F)cc1 (stereo not shown) [Compound 728]
Corn plant response rating (corn; [1]): 0
Plant response rating, Corn (corn; [2]): 0
Corn plant response rating (corn; [3]): 0
Corn plant response rating (corn; [4]): 0
Crabgrass plant response rating (crabgrass; [1]): 6
Plant response rating, Crabgrass (crabgrass; [2]): 6
Crabgrass plant response rating (crabgrass; [4]): 7
Wheat plant response rating (wheat; [1]): 0
Plant response rating, Wheat (wheat; [2]): 0
Wheat plant response rating (wheat; [3]): 5
Wheat plant response rating (wheat; [4]): 7
Morningglory plant response rating (morningglory; [1]): 0
Plant response rating, Morningglory (morningglory; [2]): 0
Morningglory plant response rating (morningglory; [3]): 2
Morningglory plant response rating (morningglory; [4]): 2
Velvetleaf plant response rating (velvetleaf; [1]): 0
Plant response rating, Velvetleaf (velvetleaf; [2]): 0
Velvetleaf plant response rating (velvetleaf; [3]): 0
Velvetleaf plant response rating (velvetleaf; [4]): 0
Nutsedge plant response rating (purple nutsedge; [1]): 0
Plant response rating, Nutsedge (purple nutsedge; [2]): 0
Sugarbeets plant response rating (sugar beet; [1]): 0
Plant response rating, Sugarbeets (sugar beet; [2]): 0
Sugarbeets plant response rating (sugar beet; [3]): 4
Sugarbeets plant response rating (sugar beet; [4]): 4
Wild oats plant response rating (wild oat; [1]): 0
Plant response rating, Wild oats (wild oat; [2]): 4
Wild oats plant response rating (wild oat; [3]): 10
Wild oats plant response rating (wild oat; [4]): 10
Bedstraw plant response rating (bedstraw; [1]): 0
Plant response rating, Bedstraw (bedstraw; [2]): 0
Bedstraw plant response rating (bedstraw; [3]): 0
Bedstraw plant response rating (bedstraw; [4]): 2
Rape plant response rating (rape; [1]): 0
Plant response rating, Rape (rape; [2]): 3
Rape plant response rating (rape; [3]): 6
Rape plant response rating (rape; [4]): 8
Giant foxtail plant response rating (giant foxtail; [1]): 4
Plant response rating, Giant foxtail (giant foxtail; [2]): 7
Giant foxtail plant response rating (giant foxtail; [3]): 8
Giant foxtail plant response rating (giant foxtail; [4]): 8
B. signalgrass plant response rating (surinam grass; [1]): 5
Plant response rating, B. signalgrass (surinam grass; [2]): 8
B. signalgrass plant response rating (surinam grass; [3]): 8
B. signalgrass plant response rating (surinam grass; [4]): 9
Cocklebur plant response rating (cocklebur; [1]): 0
Plant response rating, Cocklebur (cocklebur; [2]): 0
Cocklebur plant response rating (cocklebur; [3]): 0
Cocklebur plant response rating (cocklebur; [4]): 0
Redroot pigweed plant response rating (pigweed; [1]): 0
Plant response rating, Redroot pigweed (pigweed; [2]): 7
Redroot pigweed plant response rating (pigweed; [3]): 8
Redroot pigweed plant response rating (pigweed; [4]): 9
Blackgrass plant response rating (blackgrass; [1]): 0
Plant response rating, Blackgrass (blackgrass; [2]): 9
Blackgrass plant response rating (blackgrass; [3]): 9
Blackgrass plant response rating (blackgrass; [4]): 10
Soybean plant response rating (soybean; [1]): 0
Plant response rating, Soybean (soybean; [2]): 0
Soybean plant response rating (soybean; [3]): 0
Soybean plant response rating (soybean; [4]): 0
